Laboratory results from patent publication US9289467B2, “Compositions and methods for treating bone conditions” (Case Western Reserve University, priority 2011, dated 2016).
“Also recorded” adds a separate entry of the source.

Experiments:
Format in all cases: cell-based
WT BM cells = test: OC differentiation of WT mouse BM cells stimulated with 1.25(OH)2 vitamin D3, TRAP staining; settings: for TRAP-positive multinuclear cells / TRAP-positive mononuclear cells / numbers of resultant OC with exogenous C3a/C5a, result in words: WT BM cells; for TRAP-positive multinuclear cells / TRAP-positive mononuclear cells: 1×10^−8M 1.25(OH)2 vitamin D3, 50 μM of each antagonist, day 12; for TRAP-positive multinuclear cells: placebo 42±9; for TRAP-positive mononuclear cells: placebo 217±25; for OC generation / differentiation, result in words: WT mouse BM cells, antagonist during 1.25(OH)2 vitamin D3 stimulation, vs placebo; for numbers of resultant OC with exogenous C3a/C5a, result in words: 50 ng/mL C3a or C5a or both added daily
Procedure: (§1) Human BM cells from healthy donors were obtained from the Hematopoietic Stem Cell Core Facility of Case Western Reserve University. Murine BM cells were isolated from 8- to 12-week-old female mouse femurs and tibias, washed, and collected in 15-mL tubes in α-modified Eagle medium (MEM) containing 10% fetal bovine serum (FBS) that was heat-inactivated to eliminate complement activity. For OC differentiation, 2×10^6 BM cells were cultured in complete α-MEM medium in wells of a 24-well plate together with 1×10^−8M 1.25(OH)2 vitamin D3 (Cayman Chemical) as described before. Cultures were fed every 3 days with fresh media. For IL-6 or C5aR antagonist (C5aRA)/C3aR antagonist (C3aRA) supplementation experiments, 20 ng/mL IL-6 (R&D Systems) or 50 μM of each antagonist or both (C5aRA: JPE-1375; custom synthesized by Anaspec; C3aRA:SB290157; purchased from BMD Chemicals) were included in the medium. For C3a and/or C5a supplementation experiments, 50 ng/mL purified C3a (BD Biosciences) or C5a (Cell Sciences) or both were added daily into WT and C3^−/− BM-cell cultures. To neutralize IL-6 in samples treated with C3a/C5a, 10 ng/mL rat anti-IL-6 mAb (Clone 6B4 IGH 54; eBioscience) were added every 2 days. At day 12, differentiated OCs were identified by conventional tartrate-resistant acid phosphatase (TRAP) staining using a kit (Sigma-Aldrich) and following the protocol provided by the manufacturer. Total numbers of TRAP-positive cells in each well were counted under a microscope, and cells containing 3 or more nuclei were categorized as multinucleated.

human BM cells = test: OC differentiation of human BM cells stimulated with 1.25(OH)2 vitamin D3, TRAP staining; settings: 1.25(OH)2 vitamin D3, with antagonists vs placebo
Procedure: as §1
To determine whether the above-observed results would apply to humans, we subjected normal human BM cells to OC differentiation conditions with and without the C3aR/C5aR antagonists, then analyzed the conditioned media for the presence of factor B, factor D, and C5, and quantified the resultant TRAP^+ cells.

C3^−/− BM cells = test: OC differentiation of C3^−/− mouse BM cells stimulated with 1.25(OH)2 vitamin D3, TRAP staining; settings: for numbers of resultant OC with exogenous C3a/C5a, result in words: 50 ng/mL C3a or C5a or both added daily
Procedure: as §1

Molecule | TRAP-positive multinuclear cells (WT BM cells) [cells] | TRAP-positive mononuclear cells (WT BM cells) [cells] | OC generation / differentiation, result in words (WT BM cells) | OC differentiation (TRAP^+ cells), result in words (human BM cells) | numbers of resultant OC with exogenous C3a/C5a, result in words (WT BM cells) | numbers of resultant OC with exogenous C3a/C5a, result in words (C3^−/− BM cells; C3^−/− BM cells) | other results
NC(N)=NCCC[C@H](NC(=O)COCC(c1ccccc1)c1ccccc1)C(=O)O [C3aRA, SB290157] | 29±7 | 156±23 | significantly inhibited OC generation | significant decrease in both mononuclear and multi-nuclear TRAP^+ cells |  |  | 
C3a: purified C3a (BD Biosciences), complement activation product, 50 ng/mL |  |  |  |  | increased the numbers of resultant OC | increased the numbers of resultant OC | 
JPE-1375 [C5aRA] | 34±8 | 176±29 | did not reach a statistical significance | decrease in both cell types, but only the mono-nuclear cells were at the level of statistical significance |  |  | OC generation / differentiation, result in words (WT BM cells; listed as JPE-1375): inhibits mouse and human OC differentiation in vitro; OC differentiation (TRAP^+ cells), result in words (human BM cells; listed as JPE-1375): inhibits mouse and human OC differentiation in vitro
C5a: purified C5a (Cell Sciences), complement activation product, 50 ng/mL (protein, UniProt P06684 679-755, looked up, C5a anaphylatoxin) C5a anaphylatoxin: NLHLLRQKIEEQAAKYKHSVPKKCCYDGARVNFYETCEERVARVTIGPLCIRAFNECCTIANKIRKESPHKPVQLGR |  |  |  |  | did not appear to have a significant effect | did not appear to have a significant effect | 
IL-6: exogenous IL-6 (R&D Systems), 20 ng/mL supplemented into BM cell cultures (protein, UniProt P08505 25-211, looked up) Interleukin-6: FPTSQVRRGDFTEDTTPNRPVYTTSQVGGLITHVLWEIVEMRKELCNGNSDCMNNDDALAENNLKLPEIQRNDGCYQTGYNQEICLLKISSGLLEYHSYLEYMKNNLKDNKKDKARVLQRDTETLIHIFNQEVKDLHKIVLPTPISNALLTDKLESQKEWLRTKTIQFILKSLEEFLKVTLRSTRQT |  |  |  |  |  |  | OC differentiation with IL-6 supplementation, result in words (C3^−/− BM cells; C3^−/− BM cell cultures supplemented with IL-6): rescued the C3^−/− phenotype; also recorded: restored their OC differentiation capabilities; TRAP-positive cells (multinucleated) (C3^−/− BM cells; C3^−/− BM cells, 20 ng/mL IL-6 daily, 12 days, without IL-6 31±4): 52±9; TRAP-positive cells (mononuclear) (C3^−/− BM cells; C3^−/− BM cells, 20 ng/mL IL-6 daily, 12 days, without IL-6 108±17): 249±39; Trap^+ Multi-Nucl. Cells/Well (C3^−/− BM cells; Table 2, C3^−/− BM cells + IL-6, C3^−/− without IL-6 31 ± 4): 52 ± 9 Cells/Well; Trap^+ Mono-Nucl. Cells/Well (C3^−/− BM cells; Table 2, C3^−/− BM cells + IL-6, C3^−/− without IL-6 108 ± 17): 249 ± 39 Cells/Well
